Several values for one entry are separate records, joined by “and”; a condition that tells them apart may be missing. Identical values can stand only once. Inconclusive results and toxic doses are left out. Cut-off read from the data, not from the text of the source: active = T/C of 150% or more; inactive = T/C below 125%.
Test system: L1210 leukemia ip in BDF1 mice, survival T/C
Assay: NCI In Vivo Anticancer Drug Screen. Data for tumor model L1210 Leukemia (intraperitoneal) in B6D2F1 (BDF1) mice
Settings: endpoint: mean survival time, higher = longer survival
Summary of the method: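 Ratio derived from survival: compound-dosed mice over vehicle-dosed mice, all bearing a transplantable tumor.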

Measured: T/C

O=C1NC(c2cccc3ccccc23)Nc2ccccc21 (centres undefined)
inactive: dose: 12.5 mg/kg/injection, schedule: Q01DX009 (oral), vehicle: Klucel (hydroxypropylcellulose) (HPC) 111 % of control | dose: 12.5 mg/kg/injection, schedule: Q01DX009 (oral), vehicle: methylcellulose (MC) 103 % of control and 109 % of control | dose: 16.0 mg/kg/injection, schedule: Q01DX009 (ip), vehicle: Klucel (hydroxypropylcellulose) (HPC) 100 % of control | dose: 16.0 mg/kg/injection, schedule: Q01DX009 (sc), vehicle: Klucel (hydroxypropylcellulose) (HPC) 98 % of control | dose: 16.0 mg/kg/injection, schedule: Q03HX008 (ip), vehicle: Klucel (hydroxypropylcellulose) (HPC) 109 % of control | dose: 16.0 mg/kg/injection, schedule: Q03HX016 (ip), vehicle: Klucel (hydroxypropylcellulose) (HPC) 104 % of control | dose: 16.0 mg/kg/injection, schedule: Q03HX024 (ip), vehicle: Klucel (hydroxypropylcellulose) (HPC) 102 % of control | dose: 32.0 mg/kg/injection, schedule: Q01DX009 (ip), vehicle: Klucel (hydroxypropylcellulose) (HPC) 98 % of control | dose: 32.0 mg/kg/injection, schedule: Q01DX009 (sc), vehicle: Klucel (hydroxypropylcellulose) (HPC) 102 % of control | dose: 40.0 mg/kg/injection, schedule: Q01DX009 (ip), vehicle: methylcellulose (MC) 110 % of control | dose: 40.0 mg/kg/injection, schedule: Q01DX009 (ip), vehicle: other 107 % of control | dose: 40.0 mg/kg/injection, schedule: Q01DX009 (oral), vehicle: Klucel (hydroxypropylcellulose) (HPC) 98 % of control and 100 % of control | dose: 40.0 mg/kg/injection, schedule: Q01DX009 (oral), vehicle: methylcellulose (MC) 110 % of control | dose: 50.0 mg/kg/injection, schedule: Q01DX009 (oral), vehicle: other 106 % of control | dose: 60.0 mg/kg/injection, schedule: Q01DX009 (oral), vehicle: Klucel (hydroxypropylcellulose) (HPC) 100 % of control and 104 % of control | dose: 60.0 mg/kg/injection, schedule: Q01DX009 (oral), vehicle: methylcellulose (MC) 103 % of control | dose: 62.5 mg/kg/injection, schedule: Q01DX005 (oral), vehicle: saline 97 % of control | dose: 62.5 mg/kg/injection, schedule: Q01DX009 (oral), vehicle: saline 97 % of control | dose: 62.5 mg/kg/injection, schedule: Q01DX009 (oral), vehicle: water 104 % of control | dose: 62.5 mg/kg/injection, schedule: Q04DX003 (oral), vehicle: saline 105 % of control | dose: 64.0 mg/kg/injection, schedule: Q01DX009 (ip), vehicle: Klucel (hydroxypropylcellulose) (HPC) 108 % of control | dose: 64.0 mg/kg/injection, schedule: Q01DX009 (sc), vehicle: Klucel (hydroxypropylcellulose) (HPC) 97 % of control | dose: 80.0 mg/kg/injection, schedule: Q01DX009 (ip), vehicle: methylcellulose (MC) 101 % of control | dose: 80.0 mg/kg/injection, schedule: Q01DX009 (oral), vehicle: Klucel (hydroxypropylcellulose) (HPC) 109 % of control | dose: 80.0 mg/kg/injection, schedule: Q01DX009 (oral), vehicle: methylcellulose (MC) 105 % of control and 110 % of control | dose: 100.0 mg/kg/injection, schedule: Q01DX009 (oral), vehicle: Klucel (hydroxypropylcellulose) (HPC) 100 % of control | dose: 100.0 mg/kg/injection, schedule: Q01DX009 (oral), vehicle: saline 104 % of control and 106 % of control | dose: 100.0 mg/kg/injection, schedule: Q04DX003 (ip), vehicle: other 103 % of control | dose: 100.0 mg/kg/injection, schedule: Q04DX003 (oral), vehicle: Klucel (hydroxypropylcellulose) (HPC) 98 % of control and 104 % of control | dose: 100.0 mg/kg/injection, schedule: Q04DX003 (oral), vehicle: methylcellulose (MC) 104 % of control and 107 % of control | dose: 100.0 mg/kg/injection, schedule: Q04DX003 (oral), vehicle: other 105 % of control | dose: 120.0 mg/kg/injection, schedule: Q01DX009 (oral), vehicle: Klucel (hydroxypropylcellulose) (HPC) 104 % of control | dose: 120.0 mg/kg/injection, schedule: Q01DX009 (oral), vehicle: methylcellulose (MC) 98 % of control | dose: 125.0 mg/kg/injection, schedule: Q01DX005 (oral), vehicle: saline 110 % of control | dose: 125.0 mg/kg/injection, schedule: Q01DX009 (oral), vehicle: Klucel (hydroxypropylcellulose) (HPC) 105 % of control | dose: 125.0 mg/kg/injection, schedule: Q01DX009 (oral), vehicle: saline 103 % of control | dose: 125.0 mg/kg/injection, schedule: Q04DX003 (oral), vehicle: saline 102 % of control | dose: 125.0 mg/kg/injection, schedule: Q04DX003 (oral), vehicle: water 106 % of control | dose: 125.0 mg/kg/injection, schedule: Q07DX002 (ip), vehicle: water 103 % of control | dose: 128.0 mg/kg/injection, schedule: Q01DX001 (ip), vehicle: Klucel (hydroxypropylcellulose) (HPC) 103 % of control | dose: 128.0 mg/kg/injection, schedule: Q01DX001 (sc), vehicle: Klucel (hydroxypropylcellulose) (HPC) 100 % of control | dose: 128.0 mg/kg/injection, schedule: Q01DX009 (ip), vehicle: Klucel (hydroxypropylcellulose) (HPC) 94 % of control | dose: 128.0 mg/kg/injection, schedule: Q01DX009 (sc), vehicle: Klucel (hydroxypropylcellulose) (HPC) 103 % of control | dose: 128.0 mg/kg/injection, schedule: Q04DX003 (ip), vehicle: Klucel (hydroxypropylcellulose) (HPC) 99 % of control | dose: 128.0 mg/kg/injection, schedule: Q08DX002 (ip), vehicle: Klucel (hydroxypropylcellulose) (HPC) 97 % of control | dose: 140.0 mg/kg/injection, schedule: Q01DX009 (ip), vehicle: other 104 % of control | dose: 140.0 mg/kg/injection, schedule: Q01DX009 (oral), vehicle: Klucel (hydroxypropylcellulose) (HPC) 104 % of control and 105 % of control | dose: 140.0 mg/kg/injection, schedule: Q01DX009 (oral), vehicle: methylcellulose (MC) 109 % of control and 111 % of control | dose: 150.0 mg/kg/injection, schedule: Q01DX009 (oral), vehicle: Klucel (hydroxypropylcellulose) (HPC) 107 % of control | dose: 150.0 mg/kg/injection, schedule: Q01DX009 (oral), vehicle: other 108 % of control | dose: 150.0 mg/kg/injection, schedule: Q01DX009 (oral), vehicle: saline 108 % of control | dose: 150.0 mg/kg/injection, schedule: Q04DX003 (ip), vehicle: other 98 % of control | dose: 150.0 mg/kg/injection, schedule: Q04DX003 (oral), vehicle: Klucel (hydroxypropylcellulose) (HPC) 107 % of control and 111 % of control | dose: 150.0 mg/kg/injection, schedule: Q04DX003 (oral), vehicle: methylcellulose (MC) 104 % of control and 105 % of control | dose: 175.0 mg/kg/injection, schedule: Q01DX009 (oral), vehicle: methylcellulose (MC) 105 % of control and 108 % of control | dose: 200.0 mg/kg/injection, schedule: Q04DX003 (ip), vehicle: other 96 % of control | dose: 200.0 mg/kg/injection, schedule: Q04DX003 (oral), vehicle: Klucel (hydroxypropylcellulose) (HPC) 95 % of control and 104 % of control | dose: 200.0 mg/kg/injection, schedule: Q04DX003 (oral), vehicle: methylcellulose (MC) 98 % of control and 104 % of control | dose: 200.0 mg/kg/injection, schedule: Q04DX003 (oral), vehicle: other 108 % of control | dose: 225.0 mg/kg/injection, schedule: Q01DX009 (oral), vehicle: methylcellulose (MC) 110 % of control | dose: 250.0 mg/kg/injection, schedule: Q01DX005 (oral), vehicle: saline 107 % of control | dose: 250.0 mg/kg/injection, schedule: Q01DX009 (oral), vehicle: saline 103 % of control | dose: 250.0 mg/kg/injection, schedule: Q04DX003 (ip), vehicle: Klucel (hydroxypropylcellulose) (HPC) 103 % of control | dose: 250.0 mg/kg/injection, schedule: Q04DX003 (oral), vehicle: Klucel (hydroxypropylcellulose) (HPC) 108 % of control | dose: 250.0 mg/kg/injection, schedule: Q04DX003 (oral), vehicle: methylcellulose (MC) 103 % of control and 104 % of control | dose: 250.0 mg/kg/injection, schedule: Q04DX003 (oral), vehicle: saline 105 % of control | dose: 250.0 mg/kg/injection, schedule: Q04DX003 (oral), vehicle: water 104 % of control | dose: 250.0 mg/kg/injection, schedule: Q07DX002 (ip), vehicle: water 97 % of control | dose: 256.0 mg/kg/injection, schedule: Q01DX001 (ip), vehicle: Klucel (hydroxypropylcellulose) (HPC) 103 % of control | dose: 256.0 mg/kg/injection, schedule: Q01DX001 (sc), vehicle: Klucel (hydroxypropylcellulose) (HPC) 101 % of control | dose: 256.0 mg/kg/injection, schedule: Q01DX009 (sc), vehicle: Klucel (hydroxypropylcellulose) (HPC) 94 % of control | dose: 256.0 mg/kg/injection, schedule: Q04DX003 (ip), vehicle: Klucel (hydroxypropylcellulose) (HPC) 111 % of control | dose: 256.0 mg/kg/injection, schedule: Q08DX002 (ip), vehicle: Klucel (hydroxypropylcellulose) (HPC) 111 % of control | dose: 300.0 mg/kg/injection, schedule: Q04DX003 (ip), vehicle: Klucel (hydroxypropylcellulose) (HPC) 94 % of control | dose: 300.0 mg/kg/injection, schedule: Q04DX003 (oral), vehicle: Klucel (hydroxypropylcellulose) (HPC) 109 % of control and 111 % of control | dose: 300.0 mg/kg/injection, schedule: Q04DX003 (oral), vehicle: methylcellulose (MC) 108 % of control | dose: 500.0 mg/kg/injection, schedule: Q01DX005 (oral), vehicle: saline 107 % of control | dose: 500.0 mg/kg/injection, schedule: Q01DX009 (oral), vehicle: saline 110 % of control | dose: 500.0 mg/kg/injection, schedule: Q04DX003 (oral), vehicle: saline 108 % of control | dose: 500.0 mg/kg/injection, schedule: Q04DX003 (oral), vehicle: water 107 % of control | dose: 512.0 mg/kg/injection, schedule: Q01DX001 (sc), vehicle: Klucel (hydroxypropylcellulose) (HPC) 102 % of control | dose: 1000.0 mg/kg/injection, schedule: Q01DX005 (oral), vehicle: saline 108 % of control | dose: 1000.0 mg/kg/injection, schedule: Q04DX003 (oral), vehicle: saline 105 % of control | dose: 1024.0 mg/kg/injection, schedule: Q01DX001 (sc), vehicle: Klucel (hydroxypropylcellulose) (HPC) 100 % of control

Source: PubChem BioAssay AID248 (DTP/NCI, 2004)
